Series [1] deals with axenic L. don. amastigotes (MHOM/SD/62/1S-CL2, LdBOB). Briefly: microbe, parasite or virus in culture. As to conditions: Leishmania donovani, read-out: L. donovani MHOM/SD/62/1SCL2D axenic-cidal amastigotes IC50.
The subject of series [2] is Leishmania infantum MHOM/MA(BE)/67/ITMAP263 intracellular amastigotes. As to conditions: for IC50: read-out: L. infantum MHOM/MA(BE)/67/ITMAP263 intracellular amastigotes IC50; for L. Inf. pIC50: from L. infantum intracellular amastigote IC50.
In series [3] the test system is L. donovani MHOM/ET/67/L82 intracellular amastigotes. Conditions: read-out: L. donovani MHOM/ET/67/L82 intracellular amastigotes IC50.
For series [4], the system named is primary peritoneal mouse macrophages (PMM). As to conditions: PMM IC50 / L. infantum IC50.
In another series the test system is MRC-5SV2 cells. Briefly: Cytotoxicity assay on MRC-5SV2 cells (resazurin).
Series [5] relates to primary peritoneal mouse macrophages (PMM). Briefly: Cytotoxicity to PMM (microscopic scoring within susceptibility assay).

The source of these data is publication PMC8126888 (RSC Medicinal Chemistry, 2020).

With `Cc1nnc2ccc(S(=O)(=O)N(Cc3cccc(F)c3)c3ccc4c(c3)OCO4)cn12` [DNDI0003321887], the IC50 in series [1] is above 30 µM.
In general, CC50 refers to the concentration that lowers cell viability or growth by half. Low readings indicate greater toxicity to the cells, high ones lower toxicity to the cells. In the case of `COc1cc(S(=O)(=O)N2CCN(Cc3ccccc3)CC2)c(OC)cc1C` [Compound Z1532943652], the IC50 in series [2], in series [3] and in series [5] was above 32 µM in each case. In addition, in series [4], the “SI (vs PMM)” value is 1. This compound also registered a CC50 in the series on MRC-5SV2 cells above 32 µM.
In the case of `CCc1c(C(=O)N2CCc3ccc(S(=O)(=O)NC)cc32)[nH]c(C)c1C(C)=O` [Compound Z1262206860], the IC50 in series [2], in series [3] and in series [5] was above 32 µM throughout. Further, the “SI (vs PMM)” value in series [4] stood at 1. In the series on MRC-5SV2 cells, this compound came in with a CC50 above 32 µM.
Turning to `COc1ccc(S(=O)(=O)N(C)C)cc1NC(=O)Cn1c(C)cc2ccccc21` [Compound Z109062140], the IC50 in series [2], in series [3] and in series [5] was above 32 µM throughout. Moreover, in series [4], the “SI (vs PMM)” value was determined as 1. For the same compound, the CC50 with MRC-5SV2 cells is above 32 µM.
`CCCCCOc1cc(C)c(Cl)cc1S(N)(=O)=O` [Compound Z1724003560]: the IC50 in series [2], in series [3] and in series [5] was above 32 µM throughout. Moreover, the “SI (vs PMM)” value in series [4] was 1. Further, in the series on MRC-5SV2 cells, the CC50 was above 32 µM.
`COc1ccc(S(=O)(=O)N(C)C)cc1NC(=O)Cn1c(=O)oc2ccccc21` [Compound Z15399918]: the IC50 in series [2], in series [3] and in series [5] was above 32 µM throughout. The “SI (vs PMM)” value in series [4] is recorded as 1. The CC50 with MRC-5SV2 cells was above 32 µM.
On to `CCOc1cc(S(=O)(=O)N(Cc2ccccc2)Cc2ccccc2)c(OCC)cc1C` [Compound Z1198037468], for which the “L. Inf. pIC50” value in series [2] is given as 6.06. Moreover, the IC50 in series [2] is 0.87 µM; in series [3], 25.4 µM; in series [5] it was above 32 µM. For the same compound, the “SI (vs PMM)” value in series [4] is listed as 37. In the series with MRC-5SV2 cells, this compound had a half-maximal cytotoxic concentration (CC50) above 32 µM.
Take `CN(C)S(=O)(=O)c1cccc(NC(=O)CN2CCCc3ccccc32)c1` [Compound Z46159369]: the IC50 in series [2], in series [3] and in series [5] was above 32 µM throughout. For the same compound, the “SI (vs PMM)” value in series [4] is recorded as 1. This compound displayed a 50% cytotoxic concentration (CC50) in the series on MRC-5SV2 cells above 32 µM.
For the compound `CCN(CC)S(=O)(=O)c1ccc(OC)c(NC(=O)CN(C)c2ccccc2)c1` [Compound Z46175669], the IC50 in series [2], in series [3] and in series [5] was above 32 µM throughout. Besides, in series [4], the “SI (vs PMM)” value came to 1. In addition, in the series with MRC-5SV2 cells, the CC50 is above 32 µM.
With `COc1cc(C)c(C)cc1S(=O)(=O)NC1CCCCC1` [Compound Z1542834122], the IC50 in series [2], in series [3] and in series [5] was above 32 µM each time. Also, the “SI (vs PMM)” value in series [4] is recorded as 1. The compound also had a CC50 with MRC-5SV2 cells above 32 µM.
As for `CCCCOc1cc(C)c(C(C)C)cc1S(=O)(=O)NC1CCCCC1` [Compound Z1346174753], the “L. Inf. pIC50” value in series [2] is listed as 6. Further, the values for the IC50 in series [2], in series [3] and in series [5] were 1.01 µM, 3.39 µM and 16 µM, respectively. In addition, the “SI (vs PMM)” value in series [4] was found to be 16. Further, in the series on MRC-5SV2 cells, the midpoint of cytotoxicity, the CC50, lay at 3.74 µM.
`O=S(=O)(c1ccc2nncn2c1)N(Cc1ccccc1F)c1ccc2c(c1)OCO2` [DNDI0003321889]: the IC50 in series [1] is above 30 µM.
As to `CCCCCOc1cc(C)c(C)cc1S(=O)(=O)NC1CC(C)(C)NC(C)(C)C1` [Compound Z2035103903], in series [2], the “L. Inf. pIC50” value is on record as 5.32. In addition, the IC50 in series [2] is 4.76 µM; in series [3], 16.2 µM; in series [5] it was above 32 µM. The “SI (vs PMM)” value in series [4] worked out at 7. This compound displayed a CC50 with MRC-5SV2 cells of 10.9 µM.
For the compound `COc1ccc(S(=O)(=O)N(C)C)cc1NC(=O)C1Cc2ccccc2O1` (centres unmarked) [Compound Z109062150], the IC50 in series [2], in series [3] and in series [5] was above 32 µM in each case. In addition, the “SI (vs PMM)” value in series [4] amounted to 1. For the same compound, the CC50 in the series with MRC-5SV2 cells is above 32 µM.
